This test addresses T1, human mGluR4 (Homo sapiens, UniProt Q14833).
T1 construct: expressed in transfected cells
In words: Fluorescent cell based Ca2+ mobilization assay (FLIPR) on HEK-293 cells expressing human mGluR4. The following applies: positive allosteric modulation, HEK-293 cells expressing hmGluR4, stimulated by EC25 glutamate; mean of at least three independent experiments in duplicate; read-out: Ca^2+ Flux* (mean EC50). The text has this:
mGluR4 Assay on HEK-Expressing Human mGluR4
The compounds of the present invention are positive allosteric modulators of mGluR4 receptor. Their activity was examined on recombinant human mGluR4a receptors by detecting changes in intracellular Ca^2+ concentration, using the fluorescent Ca^2+-sensitive dye Fluo4-(AM) and a Fluorometric Imaging Plate Reader (FLIPR, Molecular Devices, Sunnyvale, Calif.).
The cDNA encoding the human metabotropic glutamate receptor (hmGluR4), (accession number NM_000841.1, NCBI Nucleotide database browser), was subcloned into an expression vector containing also the hygromycin resistance gene. In parallel, the cDNA encoding a G protein allowing redirection of the activation signal to intracellular calcium flux was subcloned into a different expression vector containing also the puromycin resistance gene. Transfection of both these vectors into HEK293 cells with PolyFect reagent (Qiagen) according to supplier's protocol, and hygromycin and puromycin treatment allowed selection of antibiotic resistant cells which had integrated stably one or more copies of the plasmids. Positive cellular clones expressing hmGluR4 were identified in a functional assay measuring changes in calcium fluxes in response to glutamate or selective known mGluR4 orthosteric agonists and antagonists. HEK-293 cells expressing hmGluR4 were maintained in media containing DMEM, dialyzed Fetal Calf Serum (10%), Glutamax™ (2 mM), Penicillin (100 units/mL), Streptomycin (100 μg/mL), Geneticin (100 μg/mL) and Hygromycin-B (40 μg/mL) and puromycin (1 μg/mL) at 37° C./5% CO2.
Human mGluR4 HEK-293 cells were plated out 24 hours prior to FLIPR^384 assay in black-walled, clear-bottomed, poly-L-ornithine-coated 384-well plates at a density of 25,000 cells/well in a glutamine/glutamate free DMEM medium containing foetal bovine serum (10%), penicillin (100 units/mL) and streptomycin (100 μg/mL) at 37° C./5% CO2.
On the day of the assay, the medium was aspirated and the cells were loaded with a 3 μM solution of Fluo4-AM (LuBioScience, Lucerne, Switzerland) in 0.03% pluronic acid. After 1 hour at 37° C./5% CO2, the non incorporated dye was removed by washing cell plate with the assay buffer and the cells were left in the dark at room temperature for […] before testing. All assays were performed in a pH 7.4 buffered-solution containing 20 mM HEPES, 143 mM NaCl, 6 mM KCl, 1 mM MgSO4, 1 mM CaCl2, 0.125 mM sulfapyrazone and 0.1% glucose.
After 10 s of basal fluorescence recording, various concentrations of the compounds of the invention were added to the cells. Changes in fluorescence levels were first monitored for 180 s in order to detect any agonist activity of the compounds. Then the cells were stimulated by an EC25 glutamate concentration for an additional 110 s in order to measure enhancing activities of the compounds of the invention. EC25 glutamate concentration is the concentration giving 25% of the maximal glutamate response.
The concentration-response curves of representative compounds of the present invention were generated using the Prism GraphPad software (Graph Pad Inc, San Diego, USA). The curves were fitted to a four-parameter logistic equation: (Y=Bottom+(Top−Bottom)/(1+10^((Log EC50−X)*Hill Slope) allowing the determination of EC50 values.
The Table 4 below represents the mean EC50 obtained from at least three independent experiments of selected molecules performed in duplicate.
Background: Calcium flux is commonly read through the fluorescence of an indicator in the cells.

pEC50: −log10 of the molar value.

T1 sequence (Q14833 33-912): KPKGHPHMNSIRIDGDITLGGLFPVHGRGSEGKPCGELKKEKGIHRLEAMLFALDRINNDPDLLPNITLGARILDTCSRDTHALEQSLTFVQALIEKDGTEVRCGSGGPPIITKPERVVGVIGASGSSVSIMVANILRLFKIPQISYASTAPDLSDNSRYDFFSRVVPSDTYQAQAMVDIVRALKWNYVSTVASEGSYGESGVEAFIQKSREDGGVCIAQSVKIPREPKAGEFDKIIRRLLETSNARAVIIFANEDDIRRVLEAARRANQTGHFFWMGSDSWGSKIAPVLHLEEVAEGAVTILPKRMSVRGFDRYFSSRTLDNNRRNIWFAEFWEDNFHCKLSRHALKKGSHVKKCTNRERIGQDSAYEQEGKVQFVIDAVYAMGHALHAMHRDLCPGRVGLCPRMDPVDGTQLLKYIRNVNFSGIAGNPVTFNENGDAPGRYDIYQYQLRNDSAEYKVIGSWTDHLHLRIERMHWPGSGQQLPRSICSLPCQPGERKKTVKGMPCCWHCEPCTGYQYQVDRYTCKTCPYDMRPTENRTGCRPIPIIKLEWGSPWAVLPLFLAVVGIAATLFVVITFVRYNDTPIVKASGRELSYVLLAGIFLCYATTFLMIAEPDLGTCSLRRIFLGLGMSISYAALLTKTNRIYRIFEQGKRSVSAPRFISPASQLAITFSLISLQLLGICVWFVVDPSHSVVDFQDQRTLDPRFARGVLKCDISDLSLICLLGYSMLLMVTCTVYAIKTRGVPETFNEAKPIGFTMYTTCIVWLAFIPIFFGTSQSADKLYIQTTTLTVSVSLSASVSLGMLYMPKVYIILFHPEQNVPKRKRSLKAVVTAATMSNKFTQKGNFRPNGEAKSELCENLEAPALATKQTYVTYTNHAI

The pEC50 is −log10 of the EC50, conventionally taken in molar units. In the case of `CN1CCc2sc(Nc3ncc(F)cn3)nc2-c2c[nH]nc21` [Compound 1-2, N-(5-Fluoropyrimidin-2-yl)-6-methyl-4,5,6,8-tetrahydropyrazolo[3,4-b]thiazolo[4,5-d]azepin-2-amine], the pEC50 was 6.00 to 7.00.

On to `CCN1CCc2sc(Nc3nccc(C)n3)nc2-c2c[nH]nc21` [Compound 1-3, 6-Ethyl-N-(4-methylpyrimidin-2-yl)-4,5,6,8-tetrahydropyrazolo[3,4-b]thiazolo[4,5-d]azepin-2-amine], for which the pEC50 was greater than 7.00.

Take `Fc1cnc(Nc2nc3c(s2)CCN(CC2CC2)c2n[nH]cc2-3)nc1` [Compound 1-4, 6-(Cyclopropylmethyl)-N-(5-fluoropyrimidin-2-yl)-4,5,6,8-tetrahydropyrazolo[3,4-b]thiazolo[4,5-d]azepin-2-amine]: the pEC50 was greater than 7.00.

Regarding `CC(C)N1CCc2sc(Nc3ncc(F)cn3)nc2-c2c[nH]nc21` [Compound 1-6, N-(5-Fluoropyrimidin-2-yl)-6-isopropyl-4,5,6,8-tetrahydropyrazolo[3,4-b]thiazolo[4,5-d]azepin-2-amine], the pEC50 is greater than 7.00.

On to `COCCN1CCc2sc(Nc3nccc(C)n3)nc2-c2c[nH]nc21` [Compound 1-7, 6-(2-Methoxyethyl)-N-(4-methylpyrimidin-2-yl)-4,5,6,8-tetrahydropyrazolo[3,4-b]thiazolo[4,5-d]azepin-2-amine], for which the pEC50 is greater than 7.00.

Consider `Cc1nc(Nc2nc3c(s2)CCN(C)c2n[nH]cc2-3)ncc1F` [Compound 1-9, N-(5-Fluoro-4-methylpyrimidin-2-yl)-6-methyl-4,5,6,8-tetrahydropyrazolo[3,4-b]thiazolo[4,5-d]azepin-2-amine], for which the pEC50 is 6.00 to 7.00.

As to `Cc1ccnc(Nc2nc3c(s2)CCN(CC2CCCO2)c2n[nH]cc2-3)n1` (centres unmarked) [Compound 1-10, N-(4-Methylpyrimidin-2-yl)-6-((tetrahydrofuran-2-yl)methyl)-4,5,6,8-tetrahydropyrazolo[3,4-b]thiazolo[4,5-d]azepin-2-amine], the pEC50 is greater than 7.00.

As for `COCCN1CCc2sc(Nc3ncc(F)cn3)nc2-c2c[nH]nc21` [Compound 1-12, N-(5-Fluoropyrimidin-2-yl)-6-(2-methoxyethyl)-4,5,6,8-tetrahydropyrazolo[3,4-b]thiazolo[4,5-d]azepin-2-amine], the pEC50 is greater than 7.00.

Take `COCCN1CCc2sc(Nc3cccc(C)n3)nc2-c2c[nH]nc21` [Compound 1-13, 6-(2-Methoxyethyl)-N-(6-methylpyridin-2-yl)-4,5,6,8-tetrahydropyrazolo[3,4-b]thiazolo[4,5-d]azepin-2-amine]: the pEC50 was greater than 7.00.

`Cc1ccnc(Nc2nc3c(s2)CCN(Cc2ccn(C)n2)c2n[nH]cc2-3)n1` [Compound 1-16, 6-((1-Methyl-1H-pyrazol-3-yl)methyl)-N-(4-methylpyrimidin-2-yl)-4,5,6,8-tetrahydropyrazolo[3,4-b]thiazolo[4,5-d]azepin-2-amine]: the pEC50 is greater than 7.00.

For the compound `Cc1ccnc(Nc2nc3c(s2)CCN(CC(=O)N(C)C)c2n[nH]cc2-3)n1` [Compound 1-17, N,N-Dimethyl-2-(2-(4-methylpyrimidin-2-ylamino)-4,5-dihydropyrazolo[3,4-b]thiazolo[4,5-d]azepin-6(8H)-yl)acetamide], the pEC50 was 6.00 to 7.00.

As to `COCCN1CCc2sc(Nc3nccc(OC)n3)nc2-c2c[nH]nc21` [Compound 1-18, 6-(2-Methoxyethyl)-N-(4-methoxypyrimidin-2-yl)-4,5,6,8-tetrahydropyrazolo[3,4-b]thiazolo[4,5-d]azepin-2-amine], the pEC50 is greater than 7.00.

Take `COCCN1CCc2sc(Nc3nsc(C)n3)nc2-c2c[nH]nc21` [Compound 1-19, 6-(2-Methoxyethyl)-N-(5-methyl-1,2,4-thiadiazol-3-yl)-4,5,6,8-tetrahydropyrazolo[3,4-b]thiazolo[4,5-d]azepin-2-amine]: the pEC50 was greater than 7.00.

For the compound `OCCN1CCc2sc(Nc3ncc(F)cn3)nc2-c2c[nH]nc21` [Compound 1-20, 2-(2-(5-Fluoropyrimidin-2-ylamino)-4,5-dihydropyrazolo[3,4-b]thiazolo[4,5-d]azepin-6(8H)-yl)ethanol], the pEC50 was 6.00 to 7.00.

For the compound `COCCN1CCc2sc(Nc3cccc(N)n3)nc2-c2c[nH]nc21` [Compound 1-21, N^2-(6-(2-Methoxyethyl)-4,5,6,8-tetrahydropyrazolo[3,4-b]thiazolo[4,5-d]azepin-2-yl) pyridine-2,6-diamine], the pEC50 is greater than 7.00.

Turning to `Cc1cc(CN2CCc3sc(Nc4ncc(F)cn4)nc3-c3c[nH]nc32)no1` [Compound 1-22, N-(5-Fluoropyrimidin-2-yl)-6-((5-methylisoxazol-3-yl)methyl)-4,5,6,8-tetrahydropyrazolo[3,4-b]thiazolo[4,5-d]azepin-2-amine], the pEC50 was greater than 7.00.

As for `Fc1cnc(Nc2nc3c(s2)CCN(Cc2ccccn2)c2n[nH]cc2-3)nc1` [Compound 1-26, N-(5-Fluoropyrimidin-2-yl)-6-(pyridin-2-ylmethyl)-4,5,6,8-tetrahydropyrazolo[3,4-b]thiazolo[4,5-d]azepin-2-amine], the pEC50 is greater than 7.00.

Take `Fc1cnc(Nc2nc3c(s2)CCN(Cc2ccncc2)c2n[nH]cc2-3)nc1` [Compound 1-27, N-(5-Fluoropyrimidin-2-yl)-6-(pyridin-4-ylmethyl)-4,5,6,8-tetrahydropyrazolo[3,4-b]thiazolo[4,5-d]azepin-2-amine]: the pEC50 was greater than 7.00.

On to `CS(=O)(=O)CCN1CCc2sc(Nc3ncc(F)cn3)nc2-c2c[nH]nc21` [Compound 1-28, N-(5-Fluoropyrimidin-2-yl)-6-(2-(methylsulfonyl)ethyl)-4,5,6,8-tetrahydropyrazolo[3,4-b]thiazolo[4,5-d]azepin-2-amine], for which the pEC50 was greater than 7.00.

As for `Fc1cnc(Nc2nc3c(s2)CCN(CCC(F)(F)F)c2n[nH]cc2-3)nc1` [Compound 1-29, N-(5-Fluoropyrimidin-2-yl)-6-(3,3,3-trifluoropropyl)-4,5,6,8-tetrahydropyrazolo[3,4-b]thiazolo[4,5-d]azepin-2-amine], the pEC50 is 6.00 to 7.00.

With `Fc1cnc(Nc2nc3c(s2)CCN(CC(F)(F)F)c2[nH]ncc2-3)nc1` [Compound 1-30, N-(5-Fluoropyrimidin-2-yl)-6-(2,2,2-trifluoroethyl)-4,5,6,7-tetrahydropyrazolo[3,4-b]thiazolo[4,5-d]azepin-2-amine], the negative-log EC50 (pEC50) is 6.00 to 7.00.

In the case of `Fc1cnc(Nc2nc3c(s2)CCN(C2CCOC2)c2n[nH]cc2-3)nc1` (centres unmarked) [Compound 1-31, N-(5-Fluoropyrimidin-2-yl)-6-(tetrahydrofuran-3-yl)-4,5,6,8-tetrahydropyrazolo[3,4-b]thiazolo[4,5-d]azepin-2-amine], the pEC50 was greater than 7.00.

For `CNCCN1CCc2sc(Nc3ncc(F)cn3)nc2-c2c[nH]nc21` [Compound 1-32, N-(5-Fluoropyrimidin-2-yl)-6-(2-(methylamino)ethyl)-4,5,6,8-tetrahydropyrazolo[3,4-b]thiazolo[4,5-d]azepin-2-amine], the pEC50 is 5.00 to 6.00.

`COCCCN1CCc2sc(Nc3ncc(F)cn3)nc2-c2c[nH]nc21` [Compound 1-33, N-(5-Fluoropyrimidin-2-yl)-6-(3-methoxypropyl)-4,5,6,8-tetrahydropyrazolo[3,4-b]thiazolo[4,5-d]azepin-2-amine]: the pEC50 is greater than 7.00.

Take `Fc1cnc(Nc2nc3c(s2)CCN(CC2CCCC2)c2n[nH]cc2-3)nc1` [Compound 1-36, 6-(Cyclopentylmethyl)-N-(5-fluoropyrimidin-2-yl)-4,5,6,8-tetrahydropyrazolo[3,4-b]thiazolo[4,5-d]azepin-2-amine]: the pEC50 was greater than 7.00.

Take `Cc1ccnc(Nc2nc3c(s2)CCN(CC2CC2)c2n[nH]cc2-3)n1` [Compound 1-37, 6-(Cyclopropylmethyl)-N-(4-methylpyrimidin-2-yl)-4,5,6,8-tetrahydropyrazolo[3,4-b]thiazolo[4,5-d]azepin-2-amine]: the pEC50 was greater than 7.00.
